Source: US20040198795A1, “Substituted imidazoliums and methods of use therefor” (priority 1996, published 2004)

Experiments:
[1] = biological target: T1, AGE-BSA previously crosslinked to the collagen (Bos taurus, UniProt P02769); experiment: Sandwich enzyme immunoassay for breaking of AGE-BSA cross-linked to collagen; assay type: biochemical; conditions: 10 mM, 16 hours, 37° C.; for % breaking, Pr AbαAGE: primary antibody anti-AGE-RNase; for % breaking, PrAbαBSA: primary antibody anti-BSA
T1 construct: Bovine Serum Albumin (Type V), (BSA) Calbiochem; purchased Calbiochem (BSA, Type V); Collaborative Biomedical Products (Biocoat collagen plates)
Protocol: In order to ascertain the ability of the compounds of the instant invention to “break” or reverse already formed advanced glycosylation endproducts, a novel sandwich enzyme immunoassay was developed which detects breaking of AGE (Advanced glycosylation endproduct) moieties from AGE-crosslinked protein. […] Following an incubation period of 16 hours (37° C.) cross-link-breaking is detected using an antibody raised against AGE-ribonuclease or with an antibody against BSA. […] Details of the assay are as follows:
1. AGE-BSA stock solutions were prepared as follows. Sodium phosphate buffer (0.4 M) was prepared by dissolving 6 grams of monobasic sodium phosphate in 100 ml of distilled water, 7 grams of dibasic sodium phosphate (0.4 M) in 100 ml of distilled water and adjusting the pH of the dibasic solution to 7.4 with the monobasic solution. Sodium azide (0.02 grams) was added per 100 ml volume to inhibit bacterial growth. The BSA solution was prepared as follows: 400 mg of Type V BSA (bovine serum albumin) was added for each ml of sodium phosphate buffer (above). A 400 mM glucose solution was prepared by dissolving 7.2 grams of dextrose in 100 ml of sodium phosphate buffer (above). The BSA and glucose solutions were mixed 1:1 and incubated at 37° C. for 12 weeks. The pH of the incubation mixture was monitored weekly and adjusted to pH 7.4 if necessary. After 12 weeks, the AGE-BSA solution was dialyzed against PBS for 48 hours with four buffer changes, each at a 1:500 ratio of solution to dialysis buffer.
2. Working solutions for crosslinking and breaking studies were prepared as follows. Test compounds were dissolved in PBS and the pH was adjusted to pH 7.4 if necessary. […] The concentration of AGE-BSA necessary to achieve the optimum sensitivity was determined by initial titration of each lot of AGE-BSA.
1. Biocoat plates were blocked with 300 μl of “Superbloc”. Plates were blocked for one hour at room temperature and were washed with PBS-Tween three times with the Dynatech platewasher before addition of test reagents.
2. Each experiment was set up in the following manner. The first three wells of the Biocoat plate were used for the reagent blank. Fifty microliters of solutions AGE-BSA were added to test wells in triplicate and only PBS in blank wells.

[2] = tested on: AGE receptor on macrophages (RAW 264.7 cells); experiment: Radioligand binding assay for upregulation of the AGE receptor on macrophages; assay type: cell-based; conditions: iodinated AGE-BSA
Protocol: To study the effects of test compounds on the upregulation of the AGE receptor on macrophages, the following radioligand binding assay was utilized.
2. One day prior to assay, 1.0 ml of cells are plated per well onto 24 well culture plates at a concentration of 0.75×10^6 cells per ml.
4. […] One ml of the ligand mixture is added to the appropriate wells and the plates are place at 4° C. on a rocking platform for four hours.
6. To each well is added 1.0 ml of 1.0 N sodium hydroxide for fifteen to thirty minutes. The disrupted cells are removed using a cotton tipped swab. After placing the swab in the appropriate tube for gamma counting, the medium remaining in each well is collected and added to the tubes containing the swabs. Each well is washed twice with 0.5 ml of 1.0 N sodium hydroxide which is then added to the appropriate tubes.
7. The samples are counted in an LKB gamma counter and the final numbers are used to determine the percent specific binding as well as the Ka, the Kd and the number of receptors per cell.

[3] = biological target: cross-linking of glycated bovine serum albumin (AGE-BSA) to the rat tail tendon collagen (Bos taurus, UniProt P02769); experiment: Inhibition of cross-linking of AGE-BSA to rat tail tendon collagen coated plate (ELISA); conditions: for % Inh.: at 10 mM, PBS pH 7.4, 37° C., 4 hours
Protocol: The following method was used to evaluate the ability of the compounds of the present invention to inhibit the cross-linking of glycated bovine serum albumin (AGE-BSA) to the rat tail tendon collagen coated 96-well plate.
The glycated BSA was then extensively dialyzed against phosphate buffer solution (PBS) for 48 hours with additional 5 times buffer exchanges. […] The blocking solution was removed from the wells by washing the plate twice with PAS-Tween 20 solution (0.05% Tween 20) using a NUNC-multiprobe or Dynatech ELISA-plate washer. […] The unbrowned BSA in PBS buffer with or without testing compound were added to the separate wells as the blanks. The uncross-linked AGE-BSA was then removed by washing the wells three times with PBS-Tween buffer. The cross-linked AGE-BSA to the tail tendon coated plate was then quantitated by the polyclonal antibody raised against AGE-RNase. After a one-hour incubation period, AGE antibody was removed by washing 4 times with PBS-Tween.
The bound AGE antibody was then detected with the addition of horseradish peroxidase-conjugated secondary antibody, e.g., goat anti-rabbit immunoglobulin and incubation for 30 minutes. […] The reaction was allowed for an additional 15 minutes and the absorbance was read at 410 nm in a Dynatech plate reader.
The % inhibition of each test compound was calculated as follows.

[4] = tested on: aortic wall protein cross-linking; conditions: diabetic rats; cited from earlier work
[5] = tested on: immunoglobulin trapping in the kidney; conditions: Brownlee et al. 1986; cited from earlier work
[6] = tested on: glomerular basement membrane thickness; conditions: streptozotocin-diabetic rat model; cited from earlier work
red blood cells = conditions: in vivo; cited from earlier work
[7] = tested on: fixed protein (gelatin, i.e., collagen) surface; experiment: Surface browning experiment on gelatin/paper disks with glucose-6-phosphate; conditions: Peridex at final 0.04% chlorhexidine, 100 Mm glucose-6-phosphate, one week at 50° C., pH 7.4
Protocol: To further study the ability of inhibitors of nonenzymatic browning to prevent the discoloration of protein on a surface, such as that which occurs on the tooth surface, the following surface browning experiment is performed. As a substitute for a pellicle-covered tooth surface, unexposed and developed photographic paper is used to provide a fixed protein (gelatin, i.e., collagen) surface on a paper backing. Five millimeter circles are punched and immersed for one week at 50° C. in a solution of 100 Mm glucose-6-phosphate in a 0.5 M phosphate buffer, pH 7.4, containing 3 Mm sodium azide. Glucose-6-phosphate is a sugar capable of participating in nonenzymatic browning at a more rapid rate than glucose. In addition to the glucose-6-phosphate, chlorhexidine and/or a compound of Formula I are included. After incubation, the gelatin/paper disks are rinsed with water, observed for brown color, and photographed.

[8] = Nordbo 1979; cited from earlier work

T1 sequence (P02769 25-607): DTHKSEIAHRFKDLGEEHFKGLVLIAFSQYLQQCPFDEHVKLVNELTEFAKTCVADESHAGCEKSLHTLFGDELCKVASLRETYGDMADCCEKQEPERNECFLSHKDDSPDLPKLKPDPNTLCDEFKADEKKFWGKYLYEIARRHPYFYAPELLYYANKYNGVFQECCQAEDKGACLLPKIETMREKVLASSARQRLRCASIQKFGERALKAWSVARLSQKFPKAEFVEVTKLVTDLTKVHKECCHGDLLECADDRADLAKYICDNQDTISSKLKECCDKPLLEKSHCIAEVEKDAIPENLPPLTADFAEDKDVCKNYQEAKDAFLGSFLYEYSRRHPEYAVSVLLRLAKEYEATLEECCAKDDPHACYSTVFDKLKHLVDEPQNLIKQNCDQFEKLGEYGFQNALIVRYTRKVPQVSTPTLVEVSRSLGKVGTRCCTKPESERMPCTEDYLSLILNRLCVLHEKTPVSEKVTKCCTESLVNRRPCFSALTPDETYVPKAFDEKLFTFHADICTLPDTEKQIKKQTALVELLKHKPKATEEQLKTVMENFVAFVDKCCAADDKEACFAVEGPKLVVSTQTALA
Sequence of cross-linking of glycated bovine serum albumin (AGE-BSA) to the rat tail tendon collagen (P02769 25-607): as above

Molecule: Cn1cc[n+](CC(N)=O)c1.[Br-]
- melting point: 183 to 185 °C

Molecule: Cn1cc[n+](CC(=O)c2ccccc2)c1.[Br-]
- melting point: 108 to 110 °C

Molecule: 1-methyl-3-[2-(3′-methoxyphenyl)-2-oxoethyl]-imidazolium bromide
- % breaking, Pr AbαAGE [1]: 20%
- % breaking, PrAbαBSA [1]: 24%
- Specific Binding Expressed as % Control, Day 1 [2]: 125%
- Specific Binding Expressed as % Control, Day 2 [2]: 132%
- Specific Binding Expressed as % Control, Day 3 [2]: 143%
- Specific Binding Expressed as % Control, Day 4 [2]: 360%

Molecule: CCOC(=O)CCCCCn1cc[n+](CC(=O)c2cccc(OC)c2)c1.[Br-] [1-(ethoxycarbonylpentyl)-3-[2-(3′-methoxyphenyl)-2-oxoethyl]-imidazolium bromide]
- % Inh. [3]: 40%

Molecule: CCN(CC)c1ccc(C(=O)Cn2cc[n+](C)c2)cc1 [1-Methyl-3-[2-(4′-diethylaminophenyl)-2-oxo-ethyl]-imidazolium bromide]
- IC50 ([3]; rat, 4 h, pH 7.4): 1750 µM
- % breaking, Pr AbαAGE [1]: 32%
- % breaking, PrAbαBSA [1]: 28%

Molecule: Cn1cc[n+](CC(=O)c2ccc(Br)cc2)c1.[Br-] [1-methyl-3-[2-(4′-bromophenyl)-2-oxoethyl]-imidazolium bromide]
- % Inh. [3]: 23%

Molecule: COc1ccc(C(=O)C[n+]2ccn(C)c2)cc1.[Br-] [1-methyl-3-[2-(4′-methoxyphenyl)-2-oxoethyl]-imidazolium bromide]
- % breaking, Pr AbαAGE [1]: 38%
- % breaking, PrAbαBSA [1]: 27%
- Specific Binding Expressed as % Control, Day 1 [2]: 185%
- Specific Binding Expressed as % Control, Day 2 [2]: 132%
- Specific Binding Expressed as % Control, Day 3 [2]: 145%
- Specific Binding Expressed as % Control, Day 4 [2]: 423%

Molecule: N=C(N)NN [aminoguanidine]
- Aortic wall protein cross-linking [4]: diminishes aortic wall protein cross-linking
- Immunoglobulin trapping in the kidney [5]: reduction of immunoglobulin trapping in the kidney
- Increased glomerular basement membrane thickness [6]: prevented
- Diabetes-induced changes in the deformability of red blood cells (red blood cells): prevent it

Molecule: [H]/N=C(\N/C(=N/[H])NCCCCCCNC(=N)NC(=N)Nc1ccc(Cl)cc1)Nc1ccc(Cl)cc1 [chlorhexidine]
- Brown color of gelatin/paper disks [7]: significant browning
- Effect on browning reactions in vitro [8]: catalyze browning reactions

Molecule: benzalkonium chloride
- Effect on browning reactions in vitro [8]: catalyze browning reactions
